Laboratory results published in paper PMC3433420 (PLoS ONE, 2012).
One block for each compound: values may come before it. Non-standard residues stand in square brackets, D forms with d. Residues, ends and D or L forms follow the SMILES beside them. No end group written: not given here. pY = N[C@@H](Cc1ccc(OP(=O)(O)O)cc1)C(=O)O

How the values were obtained:
[1] = molecular target: PIK3R2-NC tandem SH2 domains (Homo sapiens, UniProt O00459); test: FP saturation binding assay
RASA1-N SH2 domain = molecular target: T1, RASA1-N SH2 domain (Homo sapiens, UniProt P20936); test: FP saturation binding assay
T1 sequence (P20936 181-272 limits assumed): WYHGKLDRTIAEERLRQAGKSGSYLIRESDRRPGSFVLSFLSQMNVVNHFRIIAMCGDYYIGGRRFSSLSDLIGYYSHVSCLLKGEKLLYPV

SH2 and PTB domains = test: Sum of relative binding free energies (ΔΔG) from FP KDs, relative to 20 µM threshold; parameters: species or system human;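 unit kcal/mol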; conditions: summed over the receptor's phosphopeptides
Description: In order to further define and classify commonalities and differences among the ErbB family, the relative binding free energy (FE) of each SH2 domain was summed across all phosphosites on each receptor relative to the assay detection threshold of 20 µM according to Equation (3): [drawing 10] (3)

Sequence of PIK3R2-NC tandem SH2 domains (O00459 330-716 limits assumed): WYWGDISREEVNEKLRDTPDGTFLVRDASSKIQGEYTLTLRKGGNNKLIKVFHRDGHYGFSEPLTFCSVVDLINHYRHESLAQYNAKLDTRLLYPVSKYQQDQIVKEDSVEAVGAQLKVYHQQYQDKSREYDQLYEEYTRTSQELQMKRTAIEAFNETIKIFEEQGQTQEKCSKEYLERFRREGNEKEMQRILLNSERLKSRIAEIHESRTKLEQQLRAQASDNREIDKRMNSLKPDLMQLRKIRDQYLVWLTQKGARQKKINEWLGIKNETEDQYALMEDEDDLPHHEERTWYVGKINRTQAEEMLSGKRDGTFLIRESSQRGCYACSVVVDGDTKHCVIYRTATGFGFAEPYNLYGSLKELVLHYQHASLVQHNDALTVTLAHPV

Compound: CSCC[C@H](NC(=O)[C@H](Cc1ccc(OP(=O)(O)O)cc1)NC(=O)[C@H](CCC(=O)O)NC(=O)[C@H](Cc1ccc(O)cc1)NC(=O)[C@H](CC(=O)O)NC(=O)[C@@H](N)CCC(=O)O)C(=O)N[C@@H](CC(N)=O)C(=O)N[C@@H](CCCNC(=N)N)C(=O)N[C@@H](CCC(N)=O)C(=O)N[C@@H](CCCNC(=N)N)C(=O)N[C@@H](CC(=O)O)C(=O)NCC(=O)N[C@@H](CC(=O)O)C(=O)O [ErbB3 1262 13-mer] (HELM PEPTIDE1{E.D.Y.E.[O=C([C@H](Cc1ccc(OP(=O)(O)O)cc1)N[*:1])[*:2]].M.N.R.Q.R.D.G.D}$$$$V2.0)
- Kd [1]: 18.1 µM
- Kd (RASA1-N SH2 domain): 9.06 µM

Compound: CC(C)C[C@H](NC(=O)[C@H](CCCNC(=N)N)NC(=O)[C@H](C)NC(=O)[C@H](Cc1ccc(OP(=O)(O)O)cc1)NC(=O)[C@H](Cc1c[nH]cn1)NC(=O)[C@@H](NC(=O)[C@H](Cc1c[nH]cn1)NC(=O)[C@@H]1CCCN1)C(C)C)C(=O)N[C@@H](CCCCN)C(=O)N[C@H](C(=O)N[C@@H](CC(C)C)C(=O)N[C@@H](CCCNC(=N)N)C(=O)N[C@@H](CC(=O)O)C(=O)O)[C@@H](C)O [ErbB3pY1307] (HELM PEPTIDE1{P.H.V.H.[O=C([C@H](Cc1ccc(OP(=O)(O)O)cc1)N[*:1])[*:2]].A.R.L.K.T.L.R.D}$$$$V2.0)
- Kd (RASA1-N SH2 domain): 1.88 µM

- Sum free energies (ΔΔG) (SH2 and PTB domains; domain ABL1): 0.48
- Sum free energies (ΔΔG) (SH2 and PTB domains; domain ABL2): 1.81
- Sum free energies (ΔΔG) (SH2 and PTB domains; domain BCAR3): 1.81
- Sum free energies (ΔΔG) (SH2 and PTB domains; domain BLK): 4.66
- Sum free energies (ΔΔG) (SH2 and PTB domains; domain BLNK): 1.99
- Sum free energies (ΔΔG) (SH2 and PTB domains; domain BMX): 0.00
- Sum free energies (ΔΔG) (SH2 and PTB domains; domain BTK): 0.53
- Sum free energies (ΔΔG) (SH2 and PTB domains; domain CRK): 2.18
- Sum free energies (ΔΔG) (SH2 and PTB domains; domain CRKL): 0.00
- Sum free energies (ΔΔG) (SH2 and PTB domains; domain DAPP1): 0.00
- Sum free energies (ΔΔG) (SH2 and PTB domains; domain FER): 1.84
- Sum free energies (ΔΔG) (SH2 and PTB domains; domain FES): 2.60
- Sum free energies (ΔΔG) (SH2 and PTB domains; domain FGR): 2.50
- Sum free energies (ΔΔG) (SH2 and PTB domains; domain GRAP2): 0.40
- Sum free energies (ΔΔG) (SH2 and PTB domains; domain GRB2): 0.00
- Sum free energies (ΔΔG) (SH2 and PTB domains; domain GRB7): 8.74
- Sum free energies (ΔΔG) (SH2 and PTB domains; domain GRB10): 0.00
- Sum free energies (ΔΔG) (SH2 and PTB domains; domain GRB14): 0.00
- Sum free energies (ΔΔG) (SH2 and PTB domains; domain HCK): 5.34
- Sum free energies (ΔΔG) (SH2 and PTB domains; domain HSH2D): 2.34
- Sum free energies (ΔΔG) (SH2 and PTB domains; domain INPPL1): 1.51
- Sum free energies (ΔΔG) (SH2 and PTB domains; domain ITK): 1.44
- Sum free energies (ΔΔG) (SH2 and PTB domains; domain LCK): 9.34
- Sum free energies (ΔΔG) (SH2 and PTB domains; domain LCP2): 1.08
- Sum free energies (ΔΔG) (SH2 and PTB domains; domain LYN): 6.66
- Sum free energies (ΔΔG) (SH2 and PTB domains; domain MATK): 2.34
- Sum free energies (ΔΔG) (SH2 and PTB domains; domain NCK1): 1.97
- Sum free energies (ΔΔG) (SH2 and PTB domains; domain NCK2): 2.78
- Sum free energies (ΔΔG) (SH2 and PTB domains; domain PIK3R1-C): 15.79
- Sum free energies (ΔΔG) (SH2 and PTB domains; domain PIK3R1-N): 15.42
- Sum free energies (ΔΔG) (SH2 and PTB domains; domain PIK3R1-NC): 18.21
- Sum free energies (ΔΔG) (SH2 and PTB domains; domain PIK3R2-C): 4.66
- Sum free energies (ΔΔG) (SH2 and PTB domains; domain PIK3R2-N): 15.58
- Sum free energies (ΔΔG) (SH2 and PTB domains; domain PIK3R2-NC): 17.40
- Sum free energies (ΔΔG) (SH2 and PTB domains; domain PIK3R3-C): 14.57
- Sum free energies (ΔΔG) (SH2 and PTB domains; domain PIK3R3-N): 18.45
- Sum free energies (ΔΔG) (SH2 and PTB domains; domain PIK3R3-NC): 23.70
- Sum free energies (ΔΔG) (SH2 and PTB domains; domain PLCG1-C): 12.45
- Sum free energies (ΔΔG) (SH2 and PTB domains; domain PLCG1-N): 2.23
- Sum free energies (ΔΔG) (SH2 and PTB domains; domain PLCG1-NC): 12.83
- Sum free energies (ΔΔG) (SH2 and PTB domains; domain PLCG2-N): 0.60
- Sum free energies (ΔΔG) (SH2 and PTB domains; domain PLCG2-NC): 3.76
- Sum free energies (ΔΔG) (SH2 and PTB domains; domain PTK6): 7.16
- Sum free energies (ΔΔG) (SH2 and PTB domains; domain PTPN6-C): 0.00
- Sum free energies (ΔΔG) (SH2 and PTB domains; domain PTPN6-NC): 0.00
- Sum free energies (ΔΔG) (SH2 and PTB domains; domain PTPN11-C): 0.00
- Sum free energies (ΔΔG) (SH2 and PTB domains; domain PTPN11-N): 4.57
- Sum free energies (ΔΔG) (SH2 and PTB domains; domain PTPN11-NC): 4.70
- Sum free energies (ΔΔG) (SH2 and PTB domains; domain RASA1-C): 0.68
- Sum free energies (ΔΔG) (SH2 and PTB domains; domain RASA1-N): 11.64
- Sum free energies (ΔΔG) (SH2 and PTB domains; domain RASA1-NC): 10.86
- Sum free energies (ΔΔG) (SH2 and PTB domains; domain SH2B2): 0.53
- Sum free energies (ΔΔG) (SH2 and PTB domains; domain SH2B3): 5.05
- Sum free energies (ΔΔG) (SH2 and PTB domains; domain SH2B): 1.60
- Sum free energies (ΔΔG) (SH2 and PTB domains; domain SH2D1A): 6.64
- Sum free energies (ΔΔG) (SH2 and PTB domains; domain SH2D1B): 6.98
- Sum free energies (ΔΔG) (SH2 and PTB domains; domain SH2D2A): 10.39
- Sum free energies (ΔΔG) (SH2 and PTB domains; domain SH2D3A): 0.00
- Sum free energies (ΔΔG) (SH2 and PTB domains; domain SH2D3C): 5.13
- Sum free energies (ΔΔG) (SH2 and PTB domains; domain SH3BP2): 1.31
- Sum free energies (ΔΔG) (SH2 and PTB domains; domain SHB): 1.08
- Sum free energies (ΔΔG) (SH2 and PTB domains; domain SHC1-PTB): 8.01
- Sum free energies (ΔΔG) (SH2 and PTB domains; domain SHC1): 3.41
- Sum free energies (ΔΔG) (SH2 and PTB domains; domain SHC2-PTB): 4.78
- Sum free energies (ΔΔG) (SH2 and PTB domains; domain SHC3): 0.95
- Sum free energies (ΔΔG) (SH2 and PTB domains; domain SHC4): 1.50
- Sum free energies (ΔΔG) (SH2 and PTB domains; domain SHD): 1.64
- Sum free energies (ΔΔG) (SH2 and PTB domains; domain SHE): 0.00
- Sum free energies (ΔΔG) (SH2 and PTB domains; domain SHF): 0.00
- Sum free energies (ΔΔG) (SH2 and PTB domains; domain SLA2): 4.59
- Sum free energies (ΔΔG) (SH2 and PTB domains; domain SLA): 0.46
- Sum free energies (ΔΔG) (SH2 and PTB domains; domain SOCS1): 0.00
- Sum free energies (ΔΔG) (SH2 and PTB domains; domain SOCS2): 2.96
- Sum free energies (ΔΔG) (SH2 and PTB domains; domain SOCS3): 4.06
- Sum free energies (ΔΔG) (SH2 and PTB domains; domain SOCS5): 6.74
- Sum free energies (ΔΔG) (SH2 and PTB domains; domain SOCS6): 6.61
- Sum free energies (ΔΔG) (SH2 and PTB domains; domain SRC): 9.70
- Sum free energies (ΔΔG) (SH2 and PTB domains; domain STAP1): 1.44
- Sum free energies (ΔΔG) (SH2 and PTB domains; domain SUPT6H): 0.00
- Sum free energies (ΔΔG) (SH2 and PTB domains; domain SYK-C): 0.00
- Sum free energies (ΔΔG) (SH2 and PTB domains; domain SYK-N): 0.00
- Sum free energies (ΔΔG) (SH2 and PTB domains; domain SYK-NC): 2.08
- Sum free energies (ΔΔG) (SH2 and PTB domains; domain TEC): 0.70
- Sum free energies (ΔΔG) (SH2 and PTB domains; domain TENC1): 3.35
- Sum free energies (ΔΔG) (SH2 and PTB domains; domain TNS1): 3.92
- Sum free energies (ΔΔG) (SH2 and PTB domains; domain TNS3): 4.07
- Sum free energies (ΔΔG) (SH2 and PTB domains; domain TNS4): 0.67
- Sum free energies (ΔΔG) (SH2 and PTB domains; domain TXK): 1.88
- Sum free energies (ΔΔG) (SH2 and PTB domains; domain VAV1): 2.95
- Sum free energies (ΔΔG) (SH2 and PTB domains; domain VAV2): 5.08
- Sum free energies (ΔΔG) (SH2 and PTB domains; domain VAV3): 5.15
- Sum free energies (ΔΔG) (SH2 and PTB domains; domain YES1): 10.32
- Sum free energies (ΔΔG) (SH2 and PTB domains; domain ZAP70-C): 0.57
- Sum free energies (ΔΔG) (SH2 and PTB domains; domain ZAP70-N): 0.00
- Sum free energies (ΔΔG) (SH2 and PTB domains; domain ZAP70-NC): 6.20
Compound: ErbB3 (SEQG[pY]EEMRAFQD)

- Kd (RASA1-N SH2 domain): 3.69 µM
Compound: FDNLYYWDQDPPD [ErbB2 Y1221 (non-phospho)]
